The numbers were not newly measured in patent publication EP4692316A1, “MICROCARRIER FOR CELL CULTURE, METHOD FOR PREPARING MICROCARRIER FOR CELL CULTURE, AND CELL CULTURE COMPOSITION USING SAME” (LG Chem, Ltd., priority 2024, dated 2025), which cites them from elsewhere.

Structures are written as SMILES.

The conditions of the data set: monomer or oil as supplied.

As for `C=Cc1ccc(C)cc1C` [2,4-Dimethylstyrene], the density is 0.906 g/mL.

With `C=Cc1c(C)cc(C)cc1C` [trimethylstyrene], the density was 0.906 g/mL.

As for `C=Cc1ccc(C(C)(C)C)cc1` [4-tert-butyl styrene], the density was 0.875 g/mL.

`C=Cc1ccc(C)cc1` [methylstyrene]: the density was 0.89 to 0.92 g/mL.

One may read the density as mass per unit of volume.
